Test results: patent US20030153618A1, “Treatment and prevention of herpes simplex infections” (priority 1999, published 2003)

Tests used:
[1] = system: HSV, Type II; experiment: Direct plaque-forming unit (PFU) count in BSC cells in defined media with set lysine (or derivative):arginine ratio; type: cell-based; settings: average of three tests
Description: Absorbed virons were absorbed in susceptible cells in chemically defined media and the number of plaques made were counted. (See Davis, B. D., et al., Microbiology, 2nd Ed., Harper & Row, 1973, Part V, and sources cited therein for procedural details and discussion of the plaque method.)
The cell line chosen was green monkey kidney cells (BSC) that have been passed greater than 41 times. […] The virons were added to a confluent lawn of BSC cells and allowed to absorb at 25° C. for one hour. The unabsorbed virons and the media were removed by washing three times in PBS. […] The control media contained a lysine/arginine ratio of 1:1. The plaques were counted when easily readable. Flasks are done in triplicate.

[2] = system: Herpes simplex II virus; experiment: Back titration plaque assay: PFU counts at stated amounts of compound under test and arginine; type: cell-based, Herpes simplex II virus (BSC cells)
Description: The following experiments were conducted by back titration: Herpes simplex II virus from laboratory stocks was used. BSC cells were grown to confluence in Eagles medium with 15% fetal calf serum, 150 units per milliliter of penicillin and 100 micrograms per milliliter of streptomycin. The cultures were inoculated with 500 PFU of HS II. The virons were allowed to absorb for one hour at 25° C. The tissue cultures were then washed three times with sterile PBS to remove excess media and non-absorbed virons. The cells were then incubated at 37° C. until four-plus cytopathic effects were observed. The cells were then disrupted by slow freeze-thaw two times. The suspension was then clarified by slow speed centrifugation at 4° C. The supemanant suspension was then added to confluent BSC cultures. After one hour absorption, the cells were washed with PBS twice. The cells were overlaid in defined reagent (in triplicate) Eagles media in noble agar. The cells were then incubated at 37° C. until the plaques were easily counted, usually 40 t 72 hours. the cells were then washed two times with PBS and then fixed with 10% H2CO and a 2% sodium acetate. The cells were then stained in 0.1% crystal violet in ethanol. In the tables which follow the concentration of the compound to be tested, in micrograms per milliliter, is listed across the top of the table and the concentration of arginine in micrograms per milliliter is listed down the left side of the table, the count of plaque-forming units being shown in the matrix.

[3] = compound 10 μg/ml, arginine 0 μg/ml
[4] = compound 10 μg/ml, arginine 2.5 μg/ml
[5] = compound 10 μg/ml, arginine 5.0 μg/ml
[6] = compound 10 μg/ml, arginine 7.5 μg/ml
[7] = compound 10 μg/ml, arginine 10 μg/ml
[8] = compound 10 μg/ml, arginine 15 μg/ml
[9] = compound 10 μg/ml, arginine 20 μg/ml
[10] = compound 10 μg/ml, arginine 25 μg/ml
[11] = compound 25 μg/ml, arginine 0 μg/ml
[12] = compound 25 μg/ml, arginine 2.5 μg/ml
[13] = compound 25 μg/ml, arginine 5.0 μg/ml
[14] = compound 25 μg/ml, arginine 7.5 μg/ml
[15] = compound 25 μg/ml, arginine 10 μg/ml
[16] = compound 25 μg/ml, arginine 15 μg/ml
[17] = compound 25 μg/ml, arginine 20 μg/ml
[18] = compound 25 μg/ml, arginine 25 μg/ml
[19] = compound 50 μg/ml, arginine 0 μg/ml
[20] = compound 50 μg/ml, arginine 2.5 μg/ml
[21] = compound 50 μg/ml, arginine 5.0 μg/ml
[22] = compound 50 μg/ml, arginine 7.5 μg/ml
[23] = compound 50 μg/ml, arginine 10 μg/ml
[24] = compound 50 μg/ml, arginine 15 μg/ml
[25] = compound 50 μg/ml, arginine 20 μg/ml
[26] = compound 50 μg/ml, arginine 25 μg/ml
[27] = compound 100 μg/ml, arginine 0 μg/ml
[28] = compound 100 μg/ml, arginine 2.5 μg/ml
[29] = compound 100 μg/ml, arginine 5.0 μg/ml
[30] = compound 100 μg/ml, arginine 7.5 μg/ml
[31] = compound 100 μg/ml, arginine 10 μg/ml
[32] = compound 100 μg/ml, arginine 15 μg/ml
[33] = compound 100 μg/ml, arginine 20 μg/ml
[34] = compound 100 μg/ml, arginine 25 μg/ml
[35] = compound 200 μg/ml, arginine 0 μg/ml
[36] = compound 200 μg/ml, arginine 2.5 μg/ml
[37] = compound 200 μg/ml, arginine 5.0 μg/ml
[38] = compound 200 μg/ml, arginine 7.5 μg/ml
[39] = compound 200 μg/ml, arginine 10 μg/ml
[40] = compound 200 μg/ml, arginine 15 μg/ml
[41] = compound 200 μg/ml, arginine 20 μg/ml
[42] = compound 200 μg/ml, arginine 25 μg/ml
[43] = compound 300 μg/ml, arginine 0 μg/ml
[44] = compound 300 μg/ml, arginine 2.5 μg/ml
[45] = compound 300 μg/ml, arginine 5.0 μg/ml
[46] = compound 300 μg/ml, arginine 7.5 μg/ml
[47] = compound 300 μg/ml, arginine 10 μg/ml
[48] = compound 300 μg/ml, arginine 15 μg/ml
[49] = compound 300 μg/ml, arginine 20 μg/ml
[50] = compound 300 μg/ml, arginine 25 μg/ml
[51] = compound 400 μg/ml, arginine 0 μg/ml
[52] = compound 400 μg/ml, arginine 2.5 μg/ml
[53] = compound 400 μg/ml, arginine 5.0 μg/ml
[54] = compound 400 μg/ml, arginine 7.5 μg/ml
[55] = compound 400 μg/ml, arginine 10 μg/ml
[56] = compound 400 μg/ml, arginine 15 μg/ml
[57] = compound 400 μg/ml, arginine 20 μg/ml
[58] = compound 400 μg/ml, arginine 25 μg/ml
[59] = compound 500 μg/ml, arginine 0 μg/ml
[60] = compound 500 μg/ml, arginine 2.5 μg/ml
[61] = compound 500 μg/ml, arginine 5.0 μg/ml
[62] = compound 500 μg/ml, arginine 7.5 μg/ml
[63] = compound 500 μg/ml, arginine 10 μg/ml
[64] = compound 500 μg/ml, arginine 15 μg/ml
[65] = compound 500 μg/ml, arginine 20 μg/ml
[66] = compound 500 μg/ml, arginine 25 μg/ml

SMILES: NCCCCCC(N)C(=O)O (stereo not shown) [drawing 16]
- P.F.U. Count ([1]; Compound Ratio to Arginine 10:1): <5
- P.F.U. Count ([1]; Compound Ratio to Arginine 100:1): <5

SMILES: NCCCCCC(N)C(=O)O (stereo not shown) [drawing 17]
- P.F.U. Count [2, 3]: 0
- P.F.U. Count [2, 4]: 0
- P.F.U. Count [2, 5]: 0
- P.F.U. Count [2, 6]: 0
- P.F.U. Count [2, 7]: 290
- P.F.U. Count [2, 8]: 799
- P.F.U. Count [2, 9]: 2.8 × 10^5
- P.F.U. Count [2, 10]: 2.8 × 10^5
- P.F.U. Count [2, 11]: 0
- P.F.U. Count [2, 12]: 0
- P.F.U. Count [2, 13]: 0
- P.F.U. Count [2, 14]: 0
- P.F.U. Count [2, 15]: 3.7 × 10^3
- P.F.U. Count [2, 16]: 4.2 × 10^3
- P.F.U. Count [2, 17]: 2.6 × 10^5
- P.F.U. Count [2, 18]: 4 × 10^5
- P.F.U. Count [2, 19]: 0
- P.F.U. Count [2, 20]: 0
- P.F.U. Count [2, 21]: 0
- P.F.U. Count [2, 22]: 0
- P.F.U. Count [2, 23]: 79
- P.F.U. Count [2, 24]: 276
- P.F.U. Count [2, 25]: 6.6 × 10^4
- P.F.U. Count [2, 26]: 3.6 × 10^4
- P.F.U. Count [2, 27]: 0
- P.F.U. Count [2, 28]: 0
- P.F.U. Count [2, 29]: 0
- P.F.U. Count [2, 30]: 0
- P.F.U. Count [2, 31]: 0
- P.F.U. Count [2, 32]: 0
- P.F.U. Count [2, 33]: 3.2 × 10^3
- P.F.U. Count [2, 34]: 6.6 × 10^3
- P.F.U. Count [2, 35]: 0
- P.F.U. Count [2, 36]: 0
- P.F.U. Count [2, 37]: 0
- P.F.U. Count [2, 38]: 0
- P.F.U. Count [2, 39]: 0
- P.F.U. Count [2, 40]: 0
- P.F.U. Count [2, 41]: 68
- P.F.U. Count [2, 42]: 654
- P.F.U. Count [2, 43]: 0
- P.F.U. Count [2, 44]: 0
- P.F.U. Count [2, 45]: 0
- P.F.U. Count [2, 46]: 0
- P.F.U. Count [2, 47]: 0
- P.F.U. Count [2, 48]: 0
- P.F.U. Count [2, 49]: 0
- P.F.U. Count [2, 50]: 0
- P.F.U. Count [2, 51]: 0
- P.F.U. Count [2, 52]: 0
- P.F.U. Count [2, 53]: 0
- P.F.U. Count [2, 54]: 0
- P.F.U. Count [2, 55]: 0
- P.F.U. Count [2, 56]: 0
- P.F.U. Count [2, 57]: 0
- P.F.U. Count [2, 58]: 0
- P.F.U. Count [2, 59]: 0
- P.F.U. Count [2, 60]: 0
- P.F.U. Count [2, 61]: 0
- P.F.U. Count [2, 62]: 0
- P.F.U. Count [2, 63]: 0
- P.F.U. Count [2, 64]: 0
- P.F.U. Count [2, 65]: 0
- P.F.U. Count [2, 66]: 0

SMILES: CC(N)CCCCC(N)C(=O)O (stereo not shown) [drawing 18]
- P.F.U. Count [2, 3]: 0
- P.F.U. Count [2, 4]: 0
- P.F.U. Count [2, 5]: 0
- P.F.U. Count [2, 6]: 0
- P.F.U. Count [2, 7]: 610
- P.F.U. Count [2, 8]: 46
- P.F.U. Count [2, 9]: 2.1 × 10^5
- P.F.U. Count [2, 10]: 2.8 × 10^5
- P.F.U. Count [2, 11]: 0
- P.F.U. Count [2, 12]: 0
- P.F.U. Count [2, 13]: 0
- P.F.U. Count [2, 14]: 0
- P.F.U. Count [2, 15]: 3.7 × 10^3
- P.F.U. Count [2, 16]: 4.2 × 10^3
- P.F.U. Count [2, 17]: 2.0 × 10^5
- P.F.U. Count [2, 18]: 2.1 × 10^5
- P.F.U. Count [2, 19]: 0
- P.F.U. Count [2, 20]: 0
- P.F.U. Count [2, 21]: 0
- P.F.U. Count [2, 22]: 0
- P.F.U. Count [2, 23]: 79
- P.F.U. Count [2, 24]: 276
- P.F.U. Count [2, 25]: 1.6 × 10^4
- P.F.U. Count [2, 26]: 1.1 × 10^4
- P.F.U. Count [2, 27]: 0
- P.F.U. Count [2, 28]: 0
- P.F.U. Count [2, 29]: 0
- P.F.U. Count [2, 30]: 0
- P.F.U. Count [2, 31]: 0
- P.F.U. Count [2, 32]: 0
- P.F.U. Count [2, 33]: 1.0 × 10^3
- P.F.U. Count [2, 34]: 1.6 × 10^3
- P.F.U. Count [2, 35]: 0
- P.F.U. Count [2, 36]: 0
- P.F.U. Count [2, 37]: 0
- P.F.U. Count [2, 38]: 0
- P.F.U. Count [2, 39]: 0
- P.F.U. Count [2, 40]: 0
- P.F.U. Count [2, 41]: 760
- P.F.U. Count [2, 42]: 1.7 × 10^3
- P.F.U. Count [2, 43]: 0
- P.F.U. Count [2, 44]: 0
- P.F.U. Count [2, 45]: 0
- P.F.U. Count [2, 46]: 0
- P.F.U. Count [2, 47]: 0
- P.F.U. Count [2, 48]: 0
- P.F.U. Count [2, 49]: 163
- P.F.U. Count [2, 50]: 1.0 × 10^3
- P.F.U. Count [2, 51]: 0
- P.F.U. Count [2, 52]: 0
- P.F.U. Count [2, 53]: 0
- P.F.U. Count [2, 54]: 0
- P.F.U. Count [2, 55]: 0
- P.F.U. Count [2, 56]: 179
- P.F.U. Count [2, 57]: 310
- P.F.U. Count [2, 58]: 140
- P.F.U. Count [2, 59]: 0
- P.F.U. Count [2, 60]: 0
- P.F.U. Count [2, 61]: 0
- P.F.U. Count [2, 62]: 0
- P.F.U. Count [2, 63]: 0
- P.F.U. Count [2, 64]: 0
- P.F.U. Count [2, 65]: 0
- P.F.U. Count [2, 66]: 0
